Test [1] concerns the target T1, Nuc2 (reconstituted nucleosome with five match sequences for Bi-PIP2) / recombinant human P300 (Homo sapiens, UniProt Q09472).
T1 construct: 10 nM recombinant human P300 (amino acids 965-1810); purchased BPS Bioscience 50071
T1 sequence (Q09472 965-1810): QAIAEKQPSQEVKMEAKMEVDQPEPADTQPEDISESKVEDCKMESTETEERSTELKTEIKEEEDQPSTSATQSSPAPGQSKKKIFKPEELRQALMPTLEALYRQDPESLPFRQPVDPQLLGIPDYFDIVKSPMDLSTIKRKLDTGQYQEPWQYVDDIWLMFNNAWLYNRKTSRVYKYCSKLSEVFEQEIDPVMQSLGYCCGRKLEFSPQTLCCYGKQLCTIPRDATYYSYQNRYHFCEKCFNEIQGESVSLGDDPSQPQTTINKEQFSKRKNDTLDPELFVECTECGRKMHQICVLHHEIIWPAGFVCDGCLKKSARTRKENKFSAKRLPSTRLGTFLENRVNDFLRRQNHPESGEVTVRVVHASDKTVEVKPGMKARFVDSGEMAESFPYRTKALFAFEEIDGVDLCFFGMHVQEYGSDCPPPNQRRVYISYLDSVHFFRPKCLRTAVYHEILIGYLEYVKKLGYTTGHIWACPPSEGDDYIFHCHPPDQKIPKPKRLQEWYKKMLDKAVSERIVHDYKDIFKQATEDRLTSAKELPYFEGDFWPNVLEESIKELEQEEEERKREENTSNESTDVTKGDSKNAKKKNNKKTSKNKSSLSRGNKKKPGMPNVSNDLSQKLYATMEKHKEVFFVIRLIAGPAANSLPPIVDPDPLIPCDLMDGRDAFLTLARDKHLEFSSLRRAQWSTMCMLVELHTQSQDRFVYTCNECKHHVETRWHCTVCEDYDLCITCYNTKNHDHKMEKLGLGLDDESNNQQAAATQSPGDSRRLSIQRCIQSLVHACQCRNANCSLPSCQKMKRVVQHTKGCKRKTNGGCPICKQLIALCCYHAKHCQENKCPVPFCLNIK
Nature of the test: HAT reaction-in vitro ChIP-qPCR with recombinant P300, acetylation of Nuc2. It is filed as biochemical. Conditions: 100 nM compound, mixture of Nuc1 and Nuc2. The source says:
(§1) To test sequence-selective histone acetylation by Bi-PIP, a biochemical assay (HAT reaction-in vitro ChIP-qPCR) was established by combining HAT reaction followed by immunoprecipitation utilizing reconstituted nucleosomes as reported previously (Nguyen et al., Nat. Methods 2014, 11, 834-40) and quantitative polymerase chain reaction (qPCR) (FIGS. 2A to 2C).
(§2) Mononucleosomes were reconstituted utilizing a salt-dialysis method from a histone octamer and DNA templates that each have a Widom 601 nucleosome positioning sequence and five PIP-binding sequences: 5′-AACAGTCA-3′ for Bi-PIP1 and 5′-AGCCGCCA-3′ for Bi-PIP2 (FIG. 2A). Gel electrophoresis confirmed that the majority of DNA templates were successfully formed on the nucleosome. […]
(§3) To a HAT reaction (15 μL), 85 μL of an AB buffer (20 mM Tris-HCl, pH 7.5, 50 mM NaCl, 5 mM EDTA) containing 1/500 volume of anti-acetylated H3 (Abcam, ab47915) was added and rotated for 1 hour at room temperature. […] The DNA solution was diluted, and amount of the precipitated each nucleosome was measured by qPCR utilizing SYBR FAST qPCR Kit (Kapa Bioscience) on LightCycler 480 (Roche Diagnostics GmbH) (FIG. 2B). Cp values were determined by the 2nd derivative maximum method and relative […] amount was calculated by the ΔΔCp method. […]
Background: In qPCR the cycle at which signal appears reflects the starting amount.

The test system of the next test is HEK293T cells. In words: Transcriptome analysis (microarray) of cells treated with Bi-PIPs. Type of test: cell-based, human. Conditions: 1 μM, 15 hours; for downregulated transcripts: criteria <−2-fold change and <0.05 P value vs vehicle; for most upregulated protein-coding gene among uniquely activated transcripts: criteria >1.5- or <−1.5-fold change, FIG. 7A; for upregulated transcripts: criteria >2-fold change and <0.05 P value vs vehicle; for change in global gene expression (in words) / transcripts commonly upregulated by both Bi-PIP1 and Bi-PIP2: microarray. As to the method:
Considering the fundamental role of P300/CBP as the transcriptional coactivator to activate gene expression, transcriptome analyses of total RNA extracted from cells (HEK293T cells) treated with Bi-PIPs were performed. […]
HEK293T line was purchased from ATCC and maintained in DMEM (Thermo Fisher Scientific) supplemented with 10% (v/v) fetal bovine serum (FBS, Sigma Aldrich) at 37° C. with 5% CO2. For the Bi-PIP treatment, the cells were seeded on 24 well plates (2×10^5 cells/well). After one day, 1 μM of each Bi-PIP and 4 μM of Endo-Porter (10% polyethylene glycol form, Gene Tools) were added. As a vehicle, 0.1% DMSO (v/v) was used. After 15 hours of Bi-PIP treatment, RNA was extracted using FastGene™ RNA Basic Kit (Nippon Genetics) following manufacture's instruction.
The quality of RNA was checked with Bioanalyzer (Agilent Technologies) using Agilent RNA 6000 Pico Kit (Agilent Technologies). The total RNA was processed by GeneChip WT PLUS Reagent Kit (Affymetrix) and hybridized to Human Gene 2.1 ST Array Strip (Affymetrix) using GeneChip Hybridization, Wash, and Stain Kit (Affymetrix). Fluidics and scanning were conducted in GeneAtlas System (Affymetrix) using GeneChip Hybridization, Wash, and Stain Kit (Affymetrix). Data normalization, summarization and comparison were performed using Transcriptome Analysis Console v4 (Affymetrix).

Test [2] concerns the target T2, Nuc1 (reconstituted nucleosome with five match sequences for Bi-PIP1) / recombinant human P300 (Homo sapiens, UniProt Q09472).
T2 construct: 10 nM recombinant human P300 (amino acids 965-1810); purchased BPS Bioscience 50071
T2 sequence (Q09472 965-1810): T1 sequence (Q09472 965-1810)
Nature of the test: HAT reaction-in vitro ChIP-qPCR with recombinant P300, acetylation of Nuc1. Type of test: biochemical. Conditions: mixture of Nuc1 and Nuc2.
Text: as §1, §2, §3

For test [3], the target named is T3, Nuc1 histones / recombinant human P300 (Homo sapiens, UniProt Q09472).
T3 construct: 10 nM recombinant human P300 (amino acids 965-1810); purchased BPS Bioscience 50071
T3 sequence (Q09472 965-1810): T1 sequence (Q09472 965-1810)
In words: HAT reaction followed by LC-MS/MS analysis of histone peptides. The settings on record: 2.5 μM vs 0 compound, Nuc1 500 nM, P300 50 nM, Ac-CoA 10 μM. Type of test: biochemical. As for the experimental part: Histone acetylation with Bi-PIP was directly confirmed by mass spectrometry analysis. After HAT reaction using Nuc1 (500 nM), B PIP1 (0 or 2.5 μM), recombinant human P300 (50 nM) and Ac-CoA (10 μM), the histones were processed through propionylation of unmodified lysine, tryptic digestion, and propionylation of terminal amine. The resulting peptides were analyzed by liquid chromatography-tandem mass spectrometry (LC-MS/MS).

Test [4] has as its system Nuc1 / HeLa nuclear extract. Nature of the test: HAT reaction-in vitro ChIP-qPCR with HeLa nuclear extract as HAT resource, Nuc1. It is filed as biochemical, human. Conditions: 100 nM compound; HeLa nuclear extract 2% v/v; FIG. 6.

In the case of `Cc1noc(C)c1-c1ccc2c(c1)nc(CCc1ccc(OCCNC(=O)CCCCC(=O)NCCOCCOCC(=O)NCCOCCOCC(=O)Nc3cn(C)c(C(=O)Nc4cn(C)c(C(=O)NCCC(=O)Nc5cn(C)c(C(=O)Nc6cn(C)c(C(=O)Nc7cc(C(=O)NCCCC(=O)Nc8cn(C)c(C(=O)Nc9cc(C(=O)NCCC(=O)Nc%10cn(C)c(C(=O)Nc%11cc(C(=O)Nc%12cc(C(=O)NCCCN(C)C)n(C)c%12)n(C)c%11)n%10)n(C)c9)n8)n(C)c7)n6)n5)n4)n3)cc1)n2CCN1CCOCC1` [Bi-PIP2], in test [1] (10 nM P300 (amino acids 965-1810), FIG. 5), the “acetylation of Nuc2 (anti-acetylated H3 ChIP-qPCR)” value was “selective acetylation of Nuc2”. Moreover, in the test with HEK293T cells, the downregulated transcripts is 137, the “most upregulated protein-coding gene among uniquely activated transcripts” value is recorded as “IER5L”, the upregulated transcripts came out at 446 and the “change in global gene expression (in words)” value was “greater transcriptome changes”. Also, in the test on HEK293T cells, the “transcripts commonly upregulated by both Bi-PIP1 and Bi-PIP2” value was 247.

With `Cc1noc(C)c1-c1ccc2c(c1)nc(CCc1ccc(OCCNC(=O)CCCCC(=O)NCCOCCOCC(=O)NCCOCCOCC(=O)Nc3cn(C)c(C(=O)Nc4cc(C(=O)Nc5cc(C(=O)NCCC(=O)Nc6cn(C)c(C(=O)Nc7cc(C(=O)NCCCC(=O)Nc8cc(C(=O)Nc9cc(C(=O)NCCC(=O)Nc%10cn(C)c(C(=O)Nc%11cc(C(=O)Nc%12cc(C(=O)NCCCN(C)C)n(C)c%12)n(C)c%11)n%10)n(C)c9)n(C)c8)n(C)c7)n6)n(C)c5)n(C)c4)n3)cc1)n2CCN1CCOCC1` [Bi-PIP1], the “acetylation of Nuc1 (anti-acetylated H3 ChIP-qPCR)” value in test [2] (100 nM compound, P300 0, 1, 3, 10, 30, 100 nM, FIG. 3) is listed as “induced intensive acetylation”. Besides, in test [2] (100 nM each compound, 10 nM P300 (amino acids 965-1810), FIG. 4), the “acetylation of target nucleosome Nuc1 (anti-acetylated H3 ChIP-qPCR)” value is listed as “Nuc1-selective acetylation”. Further, the “acetylation of Nuc2 (anti-acetylated H3 ChIP-qPCR)” value in test [1] (P300 0, 1, 3, 10, 30, 100 nM, FIG. 3) was “acetylation was not induced”. Moreover, in test [3], the “acetylation in the N-terminal region of histone H4 (H4K5ac, H4K8ac, H4K12ac)” value is given as “acetylation was promoted” and the “signal intensity of peptides containing acetyl lysine at the N-terminal tail region of H3 (H3K14ac, H3K18ac, H3K23ac, H3K27ac, H3K36ac)” value is “increase in the signal intensity”. In addition, the “acetylation of Nuc1 in nuclear extract” value in test [4] was “enhanced acetylation of Nuc1”. In addition, in the test on HEK293T cells, the downregulated transcripts came out at 258, the “most upregulated protein-coding gene among uniquely activated transcripts” value is given as “NTS”, the upregulated transcripts is 473 and the “change in global gene expression (in words)” value is reported as “greater transcriptome changes”. Also, the “transcripts commonly upregulated by both Bi-PIP1 and Bi-PIP2” value with HEK293T cells worked out at 247.
